Data as given in PMC7508162 (Frontiers in Pharmacology, 2020).
“Also recorded” adds a separate entry of the source. Where two headings read alike, the source gives them in different places.

Molecular target: T1, human CD39 (Homo sapiens, UniProt P49961)
T1 sequence (P49961 1-510): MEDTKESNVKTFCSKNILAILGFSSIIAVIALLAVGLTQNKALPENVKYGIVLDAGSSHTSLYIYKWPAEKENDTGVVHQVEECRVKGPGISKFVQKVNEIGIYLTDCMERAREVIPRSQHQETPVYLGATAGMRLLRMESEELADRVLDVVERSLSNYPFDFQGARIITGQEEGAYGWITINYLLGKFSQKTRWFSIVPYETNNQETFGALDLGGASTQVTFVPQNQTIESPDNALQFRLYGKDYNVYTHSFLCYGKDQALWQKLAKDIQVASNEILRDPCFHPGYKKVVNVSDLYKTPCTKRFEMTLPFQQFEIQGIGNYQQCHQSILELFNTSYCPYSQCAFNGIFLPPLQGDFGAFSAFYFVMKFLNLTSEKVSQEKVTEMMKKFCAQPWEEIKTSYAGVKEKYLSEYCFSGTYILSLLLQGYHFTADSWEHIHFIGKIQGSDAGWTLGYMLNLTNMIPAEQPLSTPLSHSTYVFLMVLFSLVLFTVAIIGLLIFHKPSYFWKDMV
Experiment: Fluorescence capillary electrophoresis assay for CD39
Format: biochemical
Parameters: Human umbilical cord membrane preparations (250 ng) natively expressing high amounts of CD39; from tissue; host or cells: human umbilical cord membranes
Settings: for Ki: human umbilical cord membrane preparation, n = 3, Cheng-Prusoff; for IC50 (in words) / CD39 inhibition (in words): human CD39; for inhibition at 10 µM: read-out: % inhibition at 10 µM
Protocol: They were minced and homogenized with a polytron in 95 mM NaCl, 0.1 mM phenylmethylsulfonyl fluoride (PMSF), and 45 mM Tris solution, pH 7.6. […] The pellets were resuspended in 5 mM Tris buffer solution, pH 8.0 and 10% glycerol. All purification steps were performed at 4°C. The preparations were kept at −80°C.
For inhibition screening, three independent experiments were performed. […] The reaction buffer contained 10 mM HEPES, 2 mM CaCl2, 1 mM MgCl2, pH 7.4. The samples were incubated at 37°C for 4 min, and the enzymatic reaction was terminated by heating at 90°C for 5 min. The solution was then diluted 1:20 with reaction buffer to perform separation of nucleotides by capillary electrophoresis (CE) followed by laser-induced fluorescence (LIF) detection. […] Three independent experiments were performed, and curves were calculated by GraphPad Prism 8 software (GraphPad software, San Diego, CA, USA).
Analysis was carried out using a P/ACE MDQ capillary electrophoresis system (Beckman Instruments, Fullerton, CA, USA). The separation was performed in a polyacrylamide-coated capillary [30 cm (10 cm effective length) × 50 µm (id), × 360 µm (od)]. Before each run, the capillary was rinsed with the background electrolyte [50 mM phosphate buffer (pH 6.5)] for 1 min at 30 psi. Samples were electrokinetically injected by applying a voltage of -6 kV for 30 s at the capillary outlet, and the fluorescent nucleotide derivatives were separated by voltage application of -15 kV. […] Data collection and peak area analysis were performed by the P/ACE MDQ software 32 KARAT obtained from Beckman Coulter (Fullerton, CA, USA).

[1] = fluorescent substrate PSB-017621A 0.5 µM, read-out: Ki ± SEM
[2] = ratio of Ki values, fluorescence CE assay
[3] = screening at 10 µM, fluorescent substrate PSB-017621A 0.5 µM

SMILES	Ki [1]	inhibition at 10 µM [3]	further results
Nc1ncnc2c1ncn2[C@@H]1O[C@H](COP(=O)(O)OP(=O)(O)C(Br)(Br)P(=O)(O)O)[C@@H](O)[C@H]1O [Compound 38, (((((((2R,3S,4R,5R)-5-(6-amino-9H-purin-9-yl)-3,4-dihydroxytetrahydrofuran-2-yl)methoxy)-(hydroxy)-phosphoryl)oxy)(hydroxy)phosphoryl)dibromomethyl)-phosphonic Acid]	5.26 ± 0.22 µM	–	IC50 (in words): low micromolar range; fold decrease in CD39 potency compared to I [2]: about 5 fold
Nc1ncnc2c1ncn2[C@@H]1O[C@H](COP(=O)(O)CP(=O)(O)O)[C@@H](O)[C@H]1O [Compound 42, α,β-Methylene-ADP, reference compound]	–	–	Ki (Ki ± SEM, fluorescent substrate PSB-017621A 0.5 µM): > 10 µM; inhibition at 10 µM: 14%
CCN(C)c1ncnc2c1ncn2[C@@H]1O[C@H](COP(=O)(O)OP(=O)(O)C(Br)(Br)P(=O)(O)O)[C@@H](O)[C@H]1O [Compound 25, (Dibromo((((((2R,3S,4R,5R)-5-(6-(ethyl(methyl)amino)-9H-purin-9-yl)-3,4-dihydroxytetra-hydrofuran-2-yl)methoxy)-(hydroxy)phosphoryl)oxy)(hydroxy)phosphoryl)methyl)-phosphonic Acid]	6.48 ± 2.6 µM	–	fold decrease in CD39 potency compared to I [2]: about 7 fold
Nc1ncnc2c1ncn2[C@@H]1O[C@H](COP(=O)(O)OP(=O)(O)C(Cl)(Cl)P(=O)(O)O)[C@@H](O)[C@H]1O [Compound 39, (((((((2R,3S,4R,5R)-5-(6-Amino-9H-purin-9-yl)-3,4-dihydroxytetrahydrofuran-2-yl)methoxy)-(hydroxy)-phosphoryl)oxy)(hydroxy)phosphoryl)dichloromethyl)-phosphonic Acid]	9.53 ± 1.46 µM	–	IC50 (in words): low micromolar range; fold less potent than dibromo-derivative 38 at CD39 [2]: about 2 fold
CCCCSc1nc2c(NC)ncnc2n1[C@@H]1O[C@H](COP(=O)(O)OP(=O)(O)C(Br)(Br)P(=O)(O)O)[C@@H](O)[C@H]1O [Compound 36, (Dibromo((((((2R,3S,4R,5R)-5-(8-(butylthio)-6-(methylamino)-9H-purin-9-yl)-3,4-dihydroxy-tetrahydrofuran-2-yl)methoxy)(hydroxy)phosphoryl)oxy)-(hydroxy)phosphoryl)methyl)phosphonic Acid]	> 10 µM	39%	–
CCN(CC)c1ncnc2c1nc(NC)n2[C@@H]1O[C@H](COP(=O)(O)OP(=O)(O)C(Br)(Br)P(=O)(O)O)[C@@H](O)[C@H]1O [Compound 35, (Dibromo((((((2R,3S,4R,5R)-5-(6-(diethylamino)-8-(methylamino)-9H-purin-9-yl)-3,4-di-hydroxytetrahydrofuran-2-yl)methoxy)(hydroxy)phosphoryl)-oxy)(hydroxy)phosphoryl)methyl)phosphonic Acid]	~10 µM	59%	–
CCCN(C)c1ncnc2c1ncn2[C@@H]1O[C@H](COP(=O)(O)OP(=O)(O)C(Br)(Br)P(=O)(O)O)[C@@H](O)[C@H]1O [Compound 26, (Dibromo((((((2R,3S,4R,5R)-3,4-dihydroxy-5-(6-(methyl-(propyl)amino)-9H-purin-9-yl)tetra-hydrofuran-2-yl)-methoxy)(hydroxy)phosphoryl)oxy)(hydroxy)phosphoryl)-methyl)phosphonic Acid]	4.04 ± 2.12 µM	–	–
Nc1ncnc2c1ncn2[C@@H]1O[C@H](COP(=O)(O)OP(=O)(O)CP(=O)(O)O)[C@@H](O)[C@H]1O [Compound 43, β,γ-Methylene-ATP, reference compound]	> 10 µM	23%	CD39 inhibition (in words): virtually inactive; also recorded: no significant inhibition
CCCCNc1nc2c(N(C)C)ncnc2n1[C@@H]1O[C@H](COP(=O)(O)OP(=O)(O)C(Br)(Br)P(=O)(O)O)[C@@H](O)[C@H]1O [Compound 34, (Dibromo((((((2R,3S,4R,5R)-5-(8-(butylamino)-6-(dimethylamino)-9H-purin-9-yl)-3,4-di-hydroxytetrahydrofuran-2-yl)methoxy)(hydroxy)-phosphoryl)oxy)(hydroxy)phosphoryl)methyl)-phosphonic Acid]	~10 µM	54%	–
CCCN(CC)c1ncnc2c1ncn2[C@@H]1O[C@H](COP(=O)(O)OP(=O)(O)C(Br)(Br)P(=O)(O)O)[C@@H](O)[C@H]1O [Compound 28, (Dibromo((((((2R,3S,4R,5R)-5-(6-(ethyl(propyl)amino)-9H-purin-9-yl)-3,4-dihydroxytetra-hydrofuran-2-yl)methoxy)-(hydroxy)phosphoryl)oxy)(hydroxy)phosphoryl)methyl)-phosphonic Acid]	2.22 ± 0.02 µM	–	–

More lines, main results first:

Ki [1]	inhibition at 10 µM [3]	SMILES	further results
5.72 ± 0.86 µM	–	CNc1ncnc2c1nc(NC1CC1)n2[C@@H]1O[C@H](COP(=O)(O)OP(=O)(O)C(Br)(Br)P(=O)(O)O)[C@@H](O)[C@H]1O [Compound 32, (Dibromo((((((2R,3S,4R,5R)-5-(8-(cyclopropylamino)-6-(methylamino)-9H-purin-9-yl)-3,4-di-hydroxytetrahydrofuran-2-yl)methoxy)(hydroxy)-phosphoryl)oxy)(hydroxy)phosphoryl)methyl)phosphonic-Acid]	–
> 10 µM	4%	O=P(O)(OC[C@H]1O[C@@H](n2cnc3c(NCc4ccccc4)ncnc32)[C@H](O)[C@@H]1O)OP(=O)(O)C(Br)(Br)P(=O)(O)O [Compound 29, (((((((2R,3S,4R,5R)-5-(6-(Benzylamino)-9H-purin-9-yl)-3,4-dihydroxytetrahydrofuran-2-yl)methoxy)(hydroxy)-phosphoryl)oxy)(hydroxy)phosphoryl)dibromomethyl)-phosphonic Acid]	CD39 inhibition (in words): abolishment of the CD39-inhibiting activity
40.1 ± 7 µM	–	CN(C)c1ncnc2c1ncn2[C@@H]1O[C@H](COP(=O)(O)OP(=O)(O)C(Br)(Br)P(=O)(O)O)[C@@H](O)[C@H]1O [Compound 24, (Dibromo((((((2R,3S,4R,5R)-5-(6-(dimethylamino)-9H-purin-9-yl)-3,4-dihydroxytetrahydro-furan-2-yl)methoxy)-(hydroxy)phosphoryl)oxy)(hydroxy)phosphoryl)methyl)-phosphonic Acid]	fold decrease in CD39 potency compared to I [2]: 41 fold
4.82 ± 0.21 µM	–	O=P(O)(OC[C@H]1O[C@@H](n2cnc3c(NCCc4ccccc4)ncnc32)[C@H](O)[C@@H]1O)OP(=O)(O)C(Br)(Br)P(=O)(O)O [Compound 30, (Dibromo((((((2R,3S,4R,5R)-3,4-dihydroxy-5-(6-(phenethylamino)-9H-purin-9-yl)tetrahydrofuran-2-yl)-methoxy)(hydroxy)phosphoryl)oxy)(hydroxy)phosphoryl)-methyl)phosphonic Acid]	–
2.68 ± 1.11 µM	–	CCCN(CCC)c1ncnc2c1ncn2[C@@H]1O[C@H](COP(=O)(O)OP(=O)(O)C(Br)(Br)P(=O)(O)O)[C@@H](O)[C@H]1O [Compound 27, (Dibromo((((((2R,3S,4R,5R)-5-(6-(dipropylamino)-9H-purin-9-yl)-3,4-dihydroxytetrahydro-furan-2-yl)methoxy)-(hydroxy)phosphoryl)oxy)(hydroxy)phosphoryl)methyl)-phosphonic Acid]	–
